Calls of active or inactive are those of the source. The calls are words filed in the database; no cut-off is given here.
Tests used:
[1] = Induction of TFEB nuclear translocation in human HeLa cells expressing EGFP at 10 uM measured at 3 hrs by fluorescence microscopic analysis; type: functional
[2] = Induction of TFEB nuclear translocation in human HeLa cells expressing EGFP at 30 uM measured at 3 hrs by fluorescence microscopic analysis; type: functional
HeLa [3] = assay: Cytotoxicity against human HeLa cells at 30 uM; type: toxicity, cell-based
[4] = Induction of TFEB nuclear translocation in human HeLa cells expressing EGFP at 10 uM measured at 6 hrs by fluorescence microscopic analysis; type: functional
[5] = Induction of TFEB nuclear translocation in human HeLa cells expressing EGFP at 30 uM measured at 6 hrs by fluorescence microscopic analysis; type: functional
[6] = test system: Primary neocortical neuron; assay: Cytotoxicity against mouse Primary neocortical neuron cells assessed as effect on cell viability at 10 uM incubated for 24 hrs; type: functional, cell-based
HeLa [7] = assay: Induction of cell cycle arrest in human HeLa cells assessed as effect on p21 level at 10 uM incubated for 12 hrs by qRT-PCR analysis; type: functional, cell-based
HeLa [8] = assay: Upregulation of GLA mRNA expression in human HeLa cells at 10 uM incubated for 24 hrs by qRT-PCR analysis; type: functional, cell-based
HeLa [9] = assay: Cytotoxicity against human HeLa cells assessed as effect on cell viability at 10 uM incubated for 24 hrs; type: functional, cell-based
HeLa [10] = assay: Upregulation of Atg16L1 mRNA expression in human HeLa cells at 10 uM incubated for 24 hrs by qRT-PCR analysis; type: functional, cell-based
HeLa [11] = assay: Upregulation of HEXA mRNA expression in human HeLa cells at 10 uM incubated for 24 hrs by qRT-PCR analysis; type: functional, cell-based
[12] = AUC (0 to t) in ICR mouse at 5 mg/kg, iv measured upto 24 hrs by LC-MS/MS analysis; type: ADME, organism-based; conditions: ICR, in vivo
HeLa [13] = assay: Upregulation of LC3B mRNA expression in human HeLa cells at 10 uM incubated for 24 hrs by qRT-PCR analysis; type: functional, cell-based
HeLa [14] = assay: Upregulation of CTSF mRNA expression in TFEB knockout human HeLa cells at 10 uM incubated for 24 hrs by qRT-PCR analysis; type: functional, cell-based
HeLa [15] = assay: Upregulation of […] mRNA expression in TFEB knockout human HeLa cells at 10 uM incubated for 24 hrs by qRT-PCR analysis; type: functional, cell-based
HeLa [16] = assay: Upregulation of ATG2A mRNA expression in human HeLa cells at 10 uM incubated for 24 hrs by qRT-PCR analysis; type: functional, cell-based
HeLa [17] = assay: Upregulation of GLA mRNA expression in TFEB knockout human HeLa cells at 10 uM incubated for 24 hrs by qRT-PCR analysis; type: functional, cell-based
HeLa [18] = assay: Upregulation of p62 mRNA expression in human HeLa cells at 10 uM incubated for 24 hrs by qRT-PCR analysis; type: functional, cell-based
HeLa [19] = assay: Upregulation of CTSF mRNA expression in human HeLa cells at 10 uM incubated for 24 hrs by qRT-PCR analysis; type: functional, cell-based
HeLa [20] = assay: Upregulation of […] mRNA expression in human HeLa cells at 10 uM incubated for 24 hrs by qRT-PCR analysis; type: functional, cell-based
HeLa [21] = assay: Upregulation of CTSD mRNA expression in human HeLa cells at 10 uM incubated for 24 hrs by qRT-PCR analysis; type: functional, cell-based
HeLa [22] = assay: Upregulation of LAMP1 mRNA expression in human HeLa cells at 10 uM incubated for 24 hrs by qRT-PCR analysis; type: functional, cell-based
HeLa [23] = assay: Induction of cell cycle arrest in human HeLa cells assessed as effect on CDK7 level at 10 uM incubated for 12 hrs by qRT-PCR analysis; type: functional, cell-based
HeLa [24] = assay: Induction of cell cycle arrest in human HeLa cells assessed as effect on CDK4 level at 10 uM incubated for 12 hrs by qRT-PCR analysis; type: functional, cell-based
[25] = Volume of distribution at steady state in ICR mouse measured upto 24 hrs by LC-MS/MS analysis; type: ADME; conditions: in vivo, read-out: Vdss
HeLa [26] = assay: Upregulation of UVRAG mRNA expression in TFEB knockout human HeLa cells at 10 uM incubated for 24 hrs by qRT-PCR analysis; type: functional, cell-based
HeLa [27] = assay: Upregulation of p62 mRNA expression in TFEB knockout human HeLa cells at 10 uM incubated for 24 hrs by qRT-PCR analysis; type: functional, cell-based
HeLa [28] = assay: Upregulation of OPTN mRNA expression in TFEB knockout human HeLa cells at 10 uM incubated for 24 hrs by qRT-PCR analysis; type: functional, cell-based
HeLa [29] = assay: Induction of cell cycle arrest in human HeLa cells assessed as effect on LAMP1 level at 10 uM incubated for 12 hrs by qRT-PCR analysis; type: functional, cell-based
[30] = target: Cyclin-dependent kinase 9 (Homo sapiens) (UniProt P50750); assay: Inhibition of CDK9 in human SH-SY5Y cells assessed as decrease in Rpb1 phosphorylation at 10 uM incubated for 6 hrs by immunoblotting analysis; type: cell-based
HeLa [31] = assay: Upregulation of LAMP1 mRNA expression in TFEB knockout human HeLa cells at 10 uM incubated for 24 hrs by qRT-PCR analysis; type: functional, cell-based
HeLa [32] = assay: Induction of lysosome biogenesis in human HeLa cells assessed as increase in number of acidified lysosomes at 10 uM incubated for 24 hrs by LysiTracker red staining based flow cytometry analysis; type: functional, cell-based
HeLa [33] = assay: Upregulation of ATG2A mRNA expression in TFEB knockout human HeLa cells at 10 uM incubated for 24 hrs by qRT-PCR analysis; type: functional, cell-based
HeLa [34] = assay: Upregulation of OPTN mRNA expression in human HeLa cells at 10 uM incubated for 24 hrs by qRT-PCR analysis; type: functional, cell-based
HeLa [35] = assay: Upregulation of HEXA mRNA expression in TFEB knockout human HeLa cells at 10 uM incubated for 24 hrs by qRT-PCR analysis; type: functional, cell-based
HeLa [36] = assay: Upregulation of CTSD mRNA expression in TFEB knockout human HeLa cells at 10 uM incubated for 24 hrs by qRT-PCR analysis; type: functional, cell-based
SH-SY5Y = assay: Cytotoxicity against human SH-SY5Y cells assessed as effect on cell viability at 10 uM incubated for 24 hrs; type: functional, cell-based
HeLa [37] = assay: Upregulation of Atg16L1 mRNA expression in TFEB knockout human HeLa cells at 10 uM incubated for 24 hrs by qRT-PCR analysis; type: functional, cell-based
HeLa [38] = assay: Upregulation of UVRAG mRNA expression in human HeLa cells at 10 uM incubated for 24 hrs by qRT-PCR analysis; type: functional, cell-based
HeLa [39] = assay: Upregulation of LC3B mRNA expression in TFEB knockout human HeLa cells at 10 uM incubated for 24 hrs by qRT-PCR analysis; type: functional, cell-based

Sequence of Cyclin-dependent kinase 9 (Homo sapiens) (P50750 whole entry): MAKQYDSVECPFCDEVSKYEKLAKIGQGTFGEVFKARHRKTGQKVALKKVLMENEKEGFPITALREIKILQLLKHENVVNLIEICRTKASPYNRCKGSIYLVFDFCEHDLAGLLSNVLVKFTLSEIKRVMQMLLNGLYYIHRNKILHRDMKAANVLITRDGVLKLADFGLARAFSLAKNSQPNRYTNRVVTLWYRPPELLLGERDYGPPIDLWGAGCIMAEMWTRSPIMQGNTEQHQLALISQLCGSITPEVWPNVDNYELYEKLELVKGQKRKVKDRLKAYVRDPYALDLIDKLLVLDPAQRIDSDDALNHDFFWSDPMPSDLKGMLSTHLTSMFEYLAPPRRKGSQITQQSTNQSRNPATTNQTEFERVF

CN1CCC(CN2CCc3cc4c(cc3C2CCc2c[nH]c3ccccc23)OCO4)CC1 (centres undefined)
Activity [1]: 30% | Activity [2]: 80% | Activity (HeLa [3]): Toxic | Activity [4]: 40% | Activity [5]: 81%

COc1cc2c(cc1OC)C(CCc1c[nH]c3ccc(O)cc13)N(CC1CCOCC1)CC2 (centres undefined)
Activity [1]: 25% | Activity [2]: 85% | Activity (HeLa [3]): Toxic | Activity [4]: 34% | Activity [5]: 88%

COc1ccc2[nH]cc(CCC3c4cc(OC)c(OC)cc4CCN3CC3CCOCC3)c2c1 (centres undefined)
Activity [6]: Active | Activity [1]: 74% | Activity (HeLa [7]): inactive | Activity (HeLa [8]): Active | Activity [2]: 96% | Activity (HeLa [9]): Active | Activity (HeLa [10]): Active | Activity (HeLa [11]): Active | AUC(0-t) at 24 h [12]: 21.5 ng·h/mL | Activity (HeLa [13]): Active | Activity (HeLa [14]): Active | Activity (HeLa [15]): Active | Activity (HeLa [16]): Active | Activity (HeLa [17]): Active | Activity (HeLa [18]): Active | Activity (HeLa [19]): Active | Activity (HeLa [20]): Active | Activity (HeLa [21]): Active | Activity (HeLa [22]): Active | Activity (HeLa [23]): inactive | Activity (HeLa [24]): inactive | Vd [25]: 97.5 L/kg | Activity (HeLa [26]): Active | Activity (HeLa [27]): Active | Activity (HeLa [28]): Active | Activity (HeLa [29]): inactive | inhibition [30]: Active | Activity [4]: 76% | Activity (HeLa [31]): Active | Activity (HeLa [32]): Active | Activity (HeLa [33]): Active | Activity (HeLa [34]): Active | Activity (HeLa [35]): Active | Activity (HeLa [36]): Active | Activity (SH-SY5Y): Active | Activity (HeLa [37]): Active | Activity (HeLa [38]): Active | Activity (HeLa [39]): Active | Activity [5]: 98%
